Consider 3 compounds from PMC9532951, “Identification and characterization of a novel SNAT2 (SLC38A2) inhibitor reveals synergy with glucose transport inhibition in cancer cells” (Frontiers in Pharmacology, 2022).

Each structure is given as a SMILES string. Several values for one entry are separate records, joined by “and”; a condition that tells them apart may be missing. Equal entries are not always repeated.

Assay type in all cases: cell-based, human
The test system of one assay is SNAT1 and SNAT2. Briefly: FMP assay in HCC1806 clones C10 (ASCT2ko) and D126 (ASCT2ko, SNAT2ko). The method, then: To delete the SNAT2 (SLC38A2) gene in modified HCC1806 cells (clone C10 nullizygous for ASCT2 ([Broer et al., 2019])), the GeneArt CRISPR Nuclease Vector with OFP Reporter Kit (Invitrogen; A21174) was employed and complementary 19–20 bp long single-stranded oligonucleotides with overhangs were designed to produce a guide RNA (gRNA) for the Cas9 nuclease that would target exon 7 of the SNAT2 gene. Colonies were analysed by sequencing using the U6 primer included in the GeneArt CRISPR Nuclease Vector with OFP Reporter kit. Plasmids that contained the correct CRISPR nuclease construct were then used to transfect HCC1806 cells with Lipofectamine 2000 (Invitrogen). Prior to transfection, medium was replaced with 2 ml of fresh DMEM/F-12 (supplemented with 10% heat-inactivated FBS and 2 mM glutamine). Plasmid DNA (4 µg) and 10 µL of Lipofectamine 2000 were incubated separately for 5 min at room temperature in 500 µl of Opti-MEM (Invitrogen) before being combined and incubated for a further 30 min at room temperature. The DNA-Lipofectamine complex was then added to the cells in a dropwise manner and allowed to be absorbed over 6 h at 37°C, after which the medium was renewed with fresh DMEM/F-12. Cells were checked for red fluorescence using an EVOS FL cell imaging system (Thermo Fisher Scientific) 48–72 h post transfection. Subsequently, cells were detached using 0.25% Trypsin EDTA. After harvesting and washing thrice with PBS (pH 7.4), cells were resuspended in PBS (pH 7.4) supplemented with 5 mM glucose and 1% dialysed and heat inactivated FBS and passed through a 100 μm cell strainer. The cell filtrate was then pelleted once more and resuspended in the same buffer. Cells were sorted using an ARIA II FACS machine and individually dispensed into the wells of a 96-well plate. Nullizygous clones were identified using a series of assays including the FLIPR membrane potential assay, western blotting and sequencing.
The FLIPR Membrane Potential Blue Explorer Kit (Molecular Devices) was used to characterise inhibitors and to optimise a high-throughput compound screen. Cells were seeded at approximately 60,000 cells/well on a 96-well plate and allowed to attach and grow overnight in a cell incubator. The next day, the cells were washed once with mHBSS and incubated in a starvation medium (composed of mHBSS with 1% dialysed heat-inactivated FBS, 23 mM NaHCO3, 10 U/ml penicillin and 10 μg/ml streptomycin) for 24 h. Cells were then washed once with mHBSS and incubated with 50 µl of the mHBSS-resuspended FMP assay dye and 50 µl of mHBSS (with or without inhibitors) and incubated at room temperature for 30 min. The plate was then placed in an EnSpire Multimode plate reader (PerkinElmer) and four sequential measurements of fluorescence were recorded as a baseline reference. Immediately after the baseline measurements were taken, 25 µl of 5 mM glutamine dissolved in mHBSS was injected into each well and the plate was shaken orbitally for 5 s before a series of consecutive fluorescence measurements were taken. The excitation wavelength was set to 530 nm and the emission was detected at 565 nm. The Δ fluorescent signal reported in the figures was taken 30 s after substrate addition. After the assay was complete, the liquid content of the plate was carefully removed, and the cell monolayer inspected to ensure it remained intact throughout the course of the assay.

In another assay the test system is MDA-MB-231 cells. Put plainly: Growth assay (IncuCyte confluence), MDA-MB-231. Set-up: key to Growth (Figure 6A) / cell confluence (Figure 6F): % confluence. The following applies: for Growth (Figure 6A): MDA-MB-231. The method, then: Cells were seeded on 96-well flat bottom plates at approximately 3000 cells/well and incubated in growth medium (DMEM/F12 supplemented with 10% FBS, 2 mM glutamine) for 24 h. The next day, the growth medium was aspirated and exchanged with 300 μL/well of growth medium containing compounds at the indicated concentration. For live cell analysis, plates were placed in the IncuCyte system (Essen Bioscience), which was housed in a cell incubator (37°C, humidified atmosphere composed of 95% air and 5% CO2) and confluence measured at 6-h intervals or at the assay endpoint when untreated control cells reached a confluency >90%. Antibiotics (10 U/mL penicillin and 10 μg/ml streptomycin) were included in the treatment solutions.
Growth curves were generated using the Gompertz function of OriginPro software: y=ae^−e^(−k(x−xc))
Where a is the maximum confluence or upper asymptote, k is the growth rate coefficient, xc is the time point at which 50% confluence is reached (inflection point) and e is Euler’s number. Cell growth data are shown as % confluence.
Synergism between drug combinations was quantified using ZIP synergy scoring as calculated by SynergyFinder ([Yadav et al., 2015]).

A further assay concerns HCC1806 cells. Put plainly: Assay of glycolytic activity (extracellular lactate). The following applies: 57E 20 μM. Here is the method: Glycolytic activity was measured by detecting extracellular lactate levels over a 48-h time course. HCC1806 and HPAFII cells were seeded on a 24-well plate at approximately 500,000 and 700,000 cells/well, respectively, and incubated in growth medium overnight. The following day, the growth medium was aspirated and each well was washed once with growth medium and 1.3 ml of the treatment solution was added to begin the time-course. In addition to sampling the medium at the start of the experiment, 50 μL was collected from each well at the following time points: 9, 24 and 48 h. Samples were stored at −20°C until further use. Lactate was detected by an enzymatic assay, which consisted of combining in microcentrifuge tubes: 5 μl of sample, 45 μl of water; 25 μl of 40 mM NAD^+; 421 μl of buffer (1M glycine, 600 mM hydrazine sulfate, 5.6 mM EDTA; adjusted to pH 9.5 with sodium hydroxide); and 4 μL of L-lactate dehydrogenase solved at 300U/mL (3.33 mg/ml). The tubes were briefly vortexed and incubated for 15 min before transferring 200 μL of the mixture to a 96-well plate. The calibration curve spanned final concentrations from 5 to 500 μM. Absorbance was measured at 340 nm to detect NADH. Lactate production was normalised to total cellular protein per well as measured by the Bradford assay.

As for `NC(=O)CC[C@H](N)C(=O)O` [Glutamine, glutamine], the “FMP signal in D126 cells (ASCT2ko, SNAT2ko) compared to C10” value in the assay with SNAT1 and SNAT2 (MeAIB 10 mM, glutamine 1 mM) is listed as 42%.

On to `Cc1ccc(S(=O)(=O)N(C)c2ccsc2C(=O)NCc2ccccc2C(F)(F)F)cc1` [Compound 57_E, 3-(N-methyl (4-methylphenyl)sulfonamido)-N-(2-trifluoromethylbenzyl)thiophene-2-carboxamide], for which the tolerated concentration entry in the assay with MDA-MB-231 cells (MDA-MB-231, growth medium) is “up to 30 μM”. The “Growth (Figure 6A)” value with MDA-MB-231 cells (concentration 1) is 82.35 and 90.35 and 97.85; in the assay on MDA-MB-231 cells (concentration 3), 76.3 and 97.1 and 98.3; with MDA-MB-231 cells (concentration 10), 70.5 and 94.85 and 92.9; in the assay with MDA-MB-231 cells (concentration 30), 68.4 and 70.75 and 88.35; in the assay with MDA-MB-231 cells (concentration 100), 57.95 and 91.15 and 66.7. Further, the lactate production entry with HCC1806 cells is listed as “increased”.

Turning to `N[C@@H](CCC(=O)NO)C(=O)O` [GHX, L-glutamic acid γ-monohydroxamate], in the assay with SNAT1 and SNAT2 (C10 cells), the “block of glutamine (1 mM) FMP signal” value is “fully blocked”. For the same compound, the FMP fluorescence is 22566 and 24924 and 25754 and 31415 and 31062 and 25958 and 24037 and 24199 and 31861 and 22458 in the assay with SNAT1 and SNAT2 (C10 cells, time 0, replicates 1-10); 22979 and 25257 and 24877 and 31065 and 30653 and 25037 and 22964 and 23247 and 31019 and 21524 with SNAT1 and SNAT2 (C10 cells, time 30, replicates 1-10); 22836 and 25183 and 25086 and 31077 and 30677 and 25349 and 23314 and 23279 and 31141 and 21715 with SNAT1 and SNAT2 (C10 cells, time 40, replicates 1-10); 22729 and 25095 and 24771 and 30889 and 30642 and 25022 and 23105 and 23276 and 31320 and 21555 with SNAT1 and SNAT2 (C10 cells, time 50, replicates 1-10); 22771 and 25085 and 24871 and 30919 and 30705 and 25319 and 23018 and 23144 and 31224 and 21790 in the assay with SNAT1 and SNAT2 (C10 cells, time 60, replicates 1-10); 22546 and 24933 and 24936 and 30890 and 30628 and 25268 and 22856 and 23122 and 31403 and 21489 in the assay with SNAT1 and SNAT2 (C10 cells, time 70, replicates 1-10). Further, the FMP fluorescence is 22447 and 25159 and 24725 and 30733 and 30614 and 25267 and 22687 and 23011 and 31397 and 21490 in the assay with SNAT1 and SNAT2 (C10 cells, time 80, replicates 1-10); 22259 and 25131 and 24741 and 30924 and 30357 and 25175 and 22779 and 23104 and 30871 and 21284 in the assay with SNAT1 and SNAT2 (C10 cells, time 90, replicates 1-10); 23300 and 25374 and 26077 and 32072 and 31514 and 26200 and 24526 and 24442 and 32334 and 22554 with SNAT1 and SNAT2 (C10 cells, time -10, replicates 1-10); 23913 and 26637 and 26782 and 32769 and 33018 and 26873 and 25394 and 25312 and 33318 and 23095 in the assay with SNAT1 and SNAT2 (C10 cells, time -20, replicates 1-10).
